These are literature values, as cited in US6995149B1, “Contraceptive process and kit for female mammals, comprising a combination of gestagen and oestrogen” (Schering AG, priority 1995, dated 2006).

Series [1] concerns women. As to conditions: daily dose of 70 to 80 μg, pure gestagen preparation; in almost all women.
The conditions of series [2]: very small doses; ovulation is not always inhibited.

Take `C#C[C@]1(O)CC[C@H]2[C@@H]3CCC4=CC(=O)CC[C@@H]4[C@H]3C(=C)C[C@@]21CC` [3-ketodesogestrel]: the inhibition of ovulation result in series [1] is “In almost all women, these dosages cause inhibition of ovulation”.

Turning to `CC(=O)O[C@]1(C(C)=O)CC[C@H]2[C@@H]3C=C(Cl)C4=CC(=O)CC[C@]4(C)[C@H]3CC[C@@]21C` [chloromadinone acetate], the contraceptive protection entry in series [2] is “afforded contraceptive protection”.

For `C#C[C@]1(O)CC[C@H]2[C@@H]3CCC4=CCCC[C@@H]4[C@H]3C(=C)C[C@@]21CC` [desogestrel], the inhibition of ovulation result in series [1] is on record as “In almost all women, these dosages cause inhibition of ovulation”.
